Test results taken from ChEMBL document CHEMBL1177767, “The discovery and initial optimisation of pyrrole-2-carboxamides as inhibitors of p38alpha MAP kinase” (Bioorg Med Chem Lett, 2010).

Experiments:
Type in all cases: ADME, organism-based
[1] = Apparent volume of distribution at steady state in CD rat at 1 mg/kg, iv and 1 mg/kg, po after 7 hrs by LC-MS/MS analysis; settings: in vivo, read-out: Vdss
[2] = Oral bioavailability in CD rat at 1 mg/kg after 7 hrs by LC-MS/MS analysis; settings: in vivo
[3] = Clearance in CD rat at 1 mg/kg, iv and 1 mg/kg, po after 7 hrs by LC-MS/MS analysis; settings: in vivo
[4] = Half life in CD rat at 1 mg/kg, iv and 1 mg/kg, po after 7 hrs by LC-MS/MS analysis; settings: in vivo

Vd [1]: 0.931 L/kg
bioavailability [2]: 18%
clearance [3]: 56 mL/min/kg
half-life [4]: 9.6 min
SMILES: Cc1ccccc1C(=O)c1c[nH]c(C(=O)NCc2ccco2)c1
